Data reported in ChEMBL document CHEMBL6121035, “An Unexpected Activity of a Minor Cannabinoid: Cannabicyclol (CBL) Is a Potent Positive Allosteric Modulator of Serotonin 5-HT1A Receptor” (J Nat Prod, 2025).
The source made the active and inactive calls. The calls are words filed in the database; no cut-off is given here.

Legend:
[1] = target: T1, 5-hydroxytryptamine receptor 1A (Homo sapiens) (UniProt P08908); test: Positive allosteric modulation of N-terminal FLAG-tagged Rluc8-fused human 5-HT-1A expressed in HEK293T cells by BRET assay relative to control; assay type: cell-based
T1 sequence (whole entry): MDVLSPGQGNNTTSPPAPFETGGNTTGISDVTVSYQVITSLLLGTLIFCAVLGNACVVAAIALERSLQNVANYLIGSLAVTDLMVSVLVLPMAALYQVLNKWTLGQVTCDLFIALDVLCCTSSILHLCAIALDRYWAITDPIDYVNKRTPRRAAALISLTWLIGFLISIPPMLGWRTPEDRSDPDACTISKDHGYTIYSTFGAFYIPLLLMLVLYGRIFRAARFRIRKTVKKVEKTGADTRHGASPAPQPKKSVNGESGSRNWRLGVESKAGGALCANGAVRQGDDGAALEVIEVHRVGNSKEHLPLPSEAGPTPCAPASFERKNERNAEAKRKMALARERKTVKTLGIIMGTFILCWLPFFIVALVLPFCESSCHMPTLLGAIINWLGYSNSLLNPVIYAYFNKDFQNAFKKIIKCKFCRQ

[2] = target: T1, 5-hydroxytryptamine receptor 1A (Homo sapiens); test: (§1) Positive allosteric modulation of PK-tagged human 5-HT-1A receptor expressed in CHO-K1 cells assessed as receptor activation at 12 uM in presence of serotonin preincubated with compound for 30 mins followed by serotonin addition and measured after 90 mins by measuring beta arrestin recruitment by chemiluminescence based envision reader analysis; assay type: functional, cell-based
[3] = Stability of compound in MCT oil at 40 degreeC measured upto 2 months by HPLC-DAD analysis; assay type: physicochemical; conditions: 1460 h
[4] = target: T1, 5-hydroxytryptamine receptor 1A (Homo sapiens); test: Displacement of [3H]-8-Hydroxy-DPAT from 5-HT-1A receptor (unknown origin) at 1 uM incubated for 90 mins by Radioligand binding assay relative to control
[5] = target: T1, 5-hydroxytryptamine receptor 1A (Homo sapiens); test: Agonist activity at PK-tagged human 5-HT-1A receptor expressed in CHO-K1 cells at > 0.5 uM incubated for 90 mins by measuring beta-arrestin recruitment by PathHunter assay; assay type: functional, cell-based; conditions: filed as agonist
[6] = target: T1, 5-hydroxytryptamine receptor 1A (Homo sapiens); test: as §1, with “4” for “12”, “analysis relative to control” for “analysis”; assay type: functional, cell-based; conditions: filed as positive allosteric modulator
[7] = target: T1, 5-hydroxytryptamine receptor 1A (Homo sapiens); test: Agonist activity at PK-tagged human 5-HT-1A receptor expressed in CHO-K1 cells at 12 uM incubated for 90 mins by measuring beta-arrestin recruitment by PathHunter assay relative to control; assay type: functional, cell-based
[8] = target: T1, 5-hydroxytryptamine receptor 1A (Homo sapiens); test: as §1, with “activation at > 10 uM in” for “activation at 12 uM in”, “of serotonin at 175 nM preincubated with” for “of serotonin preincubated with”; assay type: functional, cell-based
[9] = target: T1, 5-hydroxytryptamine receptor 1A (Homo sapiens); test: as §1, with “activation at 1 uM in” for “activation at 12 uM in”, “of serotonin at 175 nM preincubated with” for “of serotonin preincubated with”, “reader analysis relative to control” for “reader analysis”; assay type: functional, cell-based; conditions: filed as positive allosteric modulator
[10] = target: Cannabinoid receptor 1 (Homo sapiens) (UniProt P21554); test: Displacement of [3H]-CP55940 from cannabinoid CB1 receptor (unknown origin) at 1 to 10 uM incubated for 90 mins by Radioligand binding assay; conditions: dose 1-10 µM
[11] = target: T1, 5-hydroxytryptamine receptor 1A (Homo sapiens); test: as §1, with “activation at 50 nM in presence” for “activation at 12 uM in presence”, “of serotonin at 40 nM preincubated with” for “of serotonin preincubated with”; assay type: functional, cell-based; conditions: filed as positive allosteric modulator, time 120.0 min
[12] = target: T1, 5-hydroxytryptamine receptor 1A (Homo sapiens); test: as §1, with “activation” for “activation at 12 uM”; assay type: functional, cell-based; conditions: filed as positive allosteric modulator, dose 0.6-12000 nM
[13] = target: Cannabinoid receptor 2 (Homo sapiens) (UniProt P34972); test: Displacement of [3H]-CP55940 from cannabinoid CB2 receptor (unknown origin) at 1 uM incubated for 90 mins by Radioligand binding assay
Spike glycoprotein = Spike glycoprotein (Severe acute respiratory syndrome coronavirus 2, UniProt P0DTC2); test: Inhibition of SARS-COV-2 spike protein
[14] = Stability of compound at 25 degreeC measured upto 2 months by HPLC-DAD analysis; assay type: physicochemical; conditions: 1460 h

Sequence of Cannabinoid receptor 2 (Homo sapiens) (P34972 whole entry): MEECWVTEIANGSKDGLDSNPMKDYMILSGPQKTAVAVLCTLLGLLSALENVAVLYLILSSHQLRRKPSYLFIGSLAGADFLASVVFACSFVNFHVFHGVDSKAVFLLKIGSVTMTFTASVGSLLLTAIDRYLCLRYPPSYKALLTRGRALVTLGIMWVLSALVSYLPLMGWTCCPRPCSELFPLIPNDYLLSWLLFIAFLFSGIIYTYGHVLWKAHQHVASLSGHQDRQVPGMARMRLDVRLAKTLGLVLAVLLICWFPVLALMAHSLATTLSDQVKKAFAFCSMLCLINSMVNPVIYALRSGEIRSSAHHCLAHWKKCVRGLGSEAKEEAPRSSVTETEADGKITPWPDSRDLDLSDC
Sequence of Cannabinoid receptor 1 (Homo sapiens) (P21554 whole entry): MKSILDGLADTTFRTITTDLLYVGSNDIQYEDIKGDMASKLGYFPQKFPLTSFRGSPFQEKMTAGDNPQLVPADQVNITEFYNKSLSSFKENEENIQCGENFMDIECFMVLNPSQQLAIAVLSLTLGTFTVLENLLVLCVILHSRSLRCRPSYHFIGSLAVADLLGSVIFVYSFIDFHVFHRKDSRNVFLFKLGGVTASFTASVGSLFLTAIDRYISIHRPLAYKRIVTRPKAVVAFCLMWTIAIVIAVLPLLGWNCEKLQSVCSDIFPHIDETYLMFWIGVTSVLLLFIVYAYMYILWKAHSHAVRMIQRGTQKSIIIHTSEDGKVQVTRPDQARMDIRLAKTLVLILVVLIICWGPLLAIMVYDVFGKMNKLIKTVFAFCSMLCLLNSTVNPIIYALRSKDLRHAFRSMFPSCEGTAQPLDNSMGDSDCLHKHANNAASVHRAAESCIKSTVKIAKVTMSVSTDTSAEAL

SMILES	Activity [1] [%]	Activity [2]	Stability [3]	Activity [4] [%]	Activity [5]	Activity [6] [%]	Activity [7] [%]	Activity [8]	Activity [9] [%]	Activity [10]	Activity [11]	Activity [12]	Activity [13]	EC50 (Spike glycoprotein) [µM]	Stability [14]
CCCCCn1cc(C(=O)c2cccc3ccccc23)c2ccccc21	12	–	–	–	–	–	–	–	–	–	–	–	–	–	–
O=C(c1cccc2ccccc12)c1cn(CCCCCF)c2ccccc12	21	–	–	–	–	–	–	–	–	–	–	–	–	–	–
CCCCCc1cc(O)c2c(c1)OC1(C)CCC3C1C2C3(C)C (racemic) [CANNABICYCLOL]	–	inactive	Stable	20	Active; Minimal Agonist Activity Observed	80	15	inactive	100	inactive	Active	Dose-dependent-effect	inactive	10.8	Stable
